Data on 12 compounds can be found in patent publication US3966793A (priority 1964, dated 1976).

In data set [1] the test system is mouse. Description: Spontaneous motor activity in the mouse. The data set is classed as in vivo. Particulars: Mus musculus, po, read-out: Spontaneous motor activity, 50% effective dose. The text has this:
(§1) 6. Spontaneous motor activity in the rat and mouse and provoked motor activity
(§2) The effect of drugs on voluntary movements of animals can be studied statistically by methods, the details of which will not be discussed here. The mouse, which is an extremely lively animal and moves about a great deal, is particularly suitable for this type of experiment.

Data set [2] deals with mice. As to the kind of experiment: Anti-convulsant activity (electric shock) (mice). The format is in vivo. Conditions: Mus musculus, po, read-out: Electric shock, 50% effective dose. The text has this: 4. Anti-convulsant activity (electric shock) (mice)
The test consists in determining the intensity of the electric current required to produce a fatal shock in a batch of test animals.
Certain preventively administered compounds effectively protect a certain percentage of animals subjected to an electric current of an intensity which is fatal to untreated animals.

The test system of data set [3] is mice. As to the kind of experiment: Traction test (mice), myorelaxant activity. The format is in vivo. Particulars: Mus musculus, po, read-out: Traction, 50% effective dose. An excerpt: This consists in observing when the treated animals are capable of retrieving a rod grasped by the front paws only. Inability to carry this out was interpreted as a sign of myorelaxant activity.

Data set [4] deals with rat. Description: Spontaneous motor activity in the rat. The format is in vivo. Conditions: Rattus norvegicus, po, read-out: Spontaneous motor activity, 50% effective dose.
Description: as §1, §2

Data set [5] has as its system mice. As to the kind of experiment: Exploration test (mice). The format is in vivo. Particulars: Mus musculus, read-out: Exploration, 50% effective dose. How it is done:
5. Exploration test (mice)
This extremely simple test consists in placing a mouse at the center of a floor pierced with holes and in noting how many holes the mouse explores in 5 minutes. This test is carried out in a room in which complete silence is observed and which contains no person except the experimenter who is seated and still. It appeals to the curiosity of the animals. The doses of the compounds employed are, however, very small and considerably less than those required to impair movement. This simple test makes it possible to observe whether the compounds assayed produce a more or less pronounced lack of interest in the environment and it gives information which is interesting from the clinical point of view with regard to the treatment of anxiety and restlessness.

Data set [6] relates to mice. Description: Balance test: rotating rod (mice) (Equilibration). Conditions: Mus musculus, po, read-out: Equilibration, 50% effective dose. The data set is classed as in vivo. The text has this: 2. Balance test: rotating rod (mice)
This test consists in observing whether the treated animals are capable of maintaining their balance on a horizontal rod kept in rotation.
Numerous neuroleptic compounds or tranquilizers disturb the equilibration reflex.

For data set [7], the system named is rat. As to the kind of experiment: Benzedrine provoked motor activity (R). Conditions: PO, read-out: Benzedrine provoked motor activity, 50% effective dose. The data set is classed as in vivo.
Description: as §1, §2
Moreover, this spontaneous mobility can be exacerbated by preventive administration to the animals of certain substances such as benzedrine, mescaline and ritaline.
The experimental results obtained by these methods give valuable information for clinical purposes with regard to the treatment of ambulatory psychomotor crises.

Data set [8] deals with mice. As to the kind of experiment: Anti-convulsant activity (anti-pentetrazole) (mice). The data set is classed as in vivo. Conditions: mouse, PO; pentetrazole 125 mg./kg. IP; read-out: Anti-pentetrazole, 50% effective dose. How it is done:
3. Anti-convulsant activity (anti-pentetrazole) (mice)
Pentetrazole, injected intraperitoneally in a dose of 125 mg./kg. produces fatal convulsions in 100% of the animals.
Certain compounds exert a protective action preventing convulsions and permitting survival.

Data set [9] in a line: Reaction (pH) of aqueous solution. The format is physicochemical.
A short description of data set [10]: Solubility.
Data set [11] in a line: Acute toxicity (M) LD 50. Conditions: in vivo, mouse.
Data set [12] has as its system central nervous system. Description: Pharmacodynamic / central nervous system tests taken together. The format is in vivo. The text has this: A certain number of the compounds described in the present application have been studied with regard to their action on the central nervous system, as psycholeptics, myorrelaxants and tranquilizers. In addition, the acute toxicity has been determined for a number of these compounds.
It has thereby been possible to make quantitative comparisons of the activity of the different compounds for the different tests employed.

Data set [13] relates to cat. As to the kind of experiment: Morphine crisis (C). Conditions: Felis catus, SC, read-out: Morphine crisis, 50% effective dose. The data set is classed as in vivo. An excerpt:
In the cat, morphine produces a specific state of excitation with hallucinations which can be attenuated or suppressed by certain psycholeptic drugs.

The test system of data set [14] is male rat. As to the kind of experiment: Combativeness (rat). The format is in vivo. Conditions: for ED50: rat, PO, read-out: Combativeness, 50% effective dose. The text has this: It is possible to make a male rat aggressive towards another male rat enclosed in the same cage by passing an electric current of more or less high voltage through the floor of the cage.
This test, like the preceding one, can obviously give information of clinical value for the treatment of aggression diseases.

For data set [15], the system named is mouse. As to the kind of experiment: Antistrychnine activity. The format is in vivo. Particulars: po, read-out: Anti-strychnine, 50% effective dose. An excerpt: 7. Antistrychnine activity
Data set [16] concerns cats. As to the kind of experiment: Aggressiveness (cat/mouse). Particulars: Felis catus, SC, read-out: Aggressiveness, 50% effective dose. The format is in vivo. An excerpt: 9. Aggressiveness (cat/mouse)
In general, 75 to 80% of cats are aggressive when confronted with white mice. Psycholeptics and tranquilizers may make the cat indifferent and sometimes even amiable to the mouse. Similarly, in the case of cats that are furious and aggressive in relation to humans, diminution or suppression of the instinctive fear and establishment of a climate of confidence are observed.

The structures appear in SMILES notation. “Also recorded” adds a separate entry of the source. Where a name gives a salt, the structure may show the parent alone.

For the compound `CCOC(=O)C1N=C(c2ccccc2)c2cc(Cl)ccc2NC1=O` (stereo not drawn) [4279 CB, 7-Chloro-3-carbethoxy-5-phenyl-2-oxo-2,3-dihydro-1H-benzo[f]-1,4-diazepine], the ED50 came to 100 mg/kg in data set [1]; 25 mg/kg in data set [2]; 8 mg/kg in data set [3]; 100 mg/kg in data set [4]; 25 mg/kg in data set [5] (po); 50 mg/kg in data set [6]. The ED50 in data set [7] is > 100 mg/kg; in [8] it was 10 mg/kg.
With `O=C(O)C1N=C(c2ccccc2)c2cc([N+](=O)[O-])ccc2NC1=O` (stereo not drawn) [4336 CB, 3-[7-nitro-5-phenyl-2-oxo-2,3-dihydro-1H-benzo[f]-1,4-diazepine]-carboxylicacid, potassium salt], in data set [9], the “Reaction / pH of aqueous solution” value is on record as “practically neutral solution”. In addition, the Solubility in water result in data set [10] was “dissolves in water”. The ED50 in data set [1] was 5 mg/kg; in data set [2] it was 3 mg/kg; in [3], 0.28 mg/kg; in [13], 25 mg/kg; in data set [4], 50 mg/kg; in [5] (po), 6 mg/kg. Further, the ED50 in [6] is 1.5 mg/kg; in data set [14], 10 mg/kg; in data set [15] it was 25 mg/kg; in data set [16], 25 mg/kg; in data set [8] it was 0.31 mg/kg. Also, the 50% lethal dose (LD50) in data set [11] (PO) was 800 mg/kg. The “Activity in different tests, especially as myorelaxants and anticonvulsants” value in data set [12] (different tests of Table VI) was “extremely active in different tests”. In data set [12] (in vivo), the “Effect on the faculties of displacement” value is “less effect on the faculties of displacement”. Besides, the “Effect in diminishing aggressiveness” value in data set [14] (test for combativeness) is reported as “marked effect in diminishing aggressiveness”.
As to `O=C(O)C1N=C(c2ccccc2)c2ccccc2NC1=O.[K+].[K+].[OH-].[OH-]` (stereo not drawn) [4337 CB, 2,3-Dihydro-2-oxo-5-phenyl-1H-benzo[f]-1,4-diazepine-3-carboxylic acid, monopotassium salt, monopotassium hydroxide], the “Reaction / pH of aqueous solution” value in data set [9] is recorded as “strongly alkaline in reaction”. Also, in data set [10], the Solubility in water result is on record as “completely soluble in water”. The ED50 in data set [2] is > 10 mg/kg; in [3], 5 mg/kg; in [5] (po) it was > 10 mg/kg; in data set [6] it was > 10 mg/kg; in data set [8], > 10 mg/kg.
As for `O=C(O)C1N=C(c2ccccc2)c2ccccc2NC1=O` (stereo not drawn) [4338 CB, 3-[5-Phenyl-2-oxo-2,3-dihydro-1H-benzo[f]-1,4-diazepine]-carboxylic acid, potassium salt], the “Reaction / pH of aqueous solution” value in [9] is listed as “substantially neutral reaction”. Further, the Solubility in water entry in data set [10] was “dissolves in water”. In addition, the ED50 was 10 mg/kg in data set [1]; > 10 mg/kg in [2]; 5 mg/kg in data set [3]; > 10 mg/kg in data set [5] (route not given); > 10 mg/kg in data set [6]; > 10 mg/kg in [8].
As to `Cc1ccc2c(c1)C(c1ccccc1)=NC(C(=O)O)C(=O)N2.[K+].[K+].[OH-].[OH-]` (stereo not drawn) [4339 CB, 7-Methyl-2,3-dihydro-2-oxo-5-phenyl-1H-benzo[f]-1,4-diazepine-3-carboxylic acid, monopotassium salt, monopotassium hydroxide], in data set [10], the Solubility in water result is recorded as “completely soluble in water”. Further, the ED50 in [1] was 10 mg/kg; in data set [2], > 10 mg/kg; in data set [3] it was > 10 mg/kg; in data set [6], > 10 mg/kg; in data set [8] it was > 10 mg/kg.
As to `NC(=O)C(N=C(c1ccccc1)c1cc(Cl)ccc1N)C(=O)O` (stereo not drawn) [4349 CB, Potassium salt of 4-phenyl-4-(2-amino-5-chlorophenyl)-2-carbamoyl-3-aza-3-butenoic acid], in [10], the Solubility in water result is “completely soluble in water”. Also, the ED50 in [1] was 10 mg/kg; in [2], > 10 mg/kg; in data set [3], 10 mg/kg; in data set [5] (po) it was 10 mg/kg; in [6], > 10 mg/kg; in data set [8], > 10 mg/kg.
In the case of `CN1C(=O)C(C(=O)O)N=C(c2ccccc2)c2cc(Cl)ccc21.[K+].[K+].[OH-].[OH-]` (stereo not drawn) [4350 CB, 7-Chloro-1-methyl-2,3-dihydro-2-oxo-5-phenyl-1H-benzo[f]-1,4-diazepine-3-carboxylic acid, monopotassium salt, monopotassium hydroxide], the “Reaction / pH of aqueous solution” value in data set [9] is given as “strongly alkaline in reaction”. Also, the Solubility in water result in [10] was “very soluble in water; also recorded: completely soluble in water”. Further, the ED50 in [1] is > 20 mg/kg; in data set [2] it was 20 mg/kg; in data set [3], 5 mg/kg; in data set [5] (po) it was 10 mg/kg; in data set [6] it was > 10 mg/kg; in data set [8] it was 7.5 mg/kg.
Turning to `CCN(CC)CCNC(=O)C1N=C(c2ccccc2)c2cc(Cl)ccc2NC1=O` (stereo not drawn) [4369 CB, 7-Chloro-3-(2-diethylamino-ethylaminocarbonyl)-5-phenyl-2-oxo-2,3-dihydro-1H-benzo[f]-1,4-diazepine], the ED50 is > 10 mg/kg in [1]; > 20 mg/kg in data set [2]; > 25 mg/kg in [3]; > 20 mg/kg in [5] (po); > 50 mg/kg in [6]; > 50 mg/kg in data set [8].
On to `Nc1ccc2c(c1)C(c1ccccc1)=NC(C(=O)O)C(=O)N2.[K+].[K+].[OH-].[OH-]` (stereo not drawn) [4371 CB, 7-Amino-2,3-dihydro-2-oxo-5-phenyl-1H-benzo[f]-1,4-diazepine-3-carboxylic acid, monopotassium salt, monopotassium hydroxide], for which the “Reaction / pH of aqueous solution” value in data set [9] is “strongly alkaline reaction”. Besides, the Solubility in water result in data set [10] is reported as “completely soluble in water”.
On to `O=C(O)C1N=C(c2ccccc2)c2cc(Cl)ccc2NC1=O` (stereo not drawn) [4372 CB, 7-Chloro-2,3-dihydro-2-oxo-5-phenyl-1H-benzo[f]-1,4-diazepine-3-carboxylic acid, calcium salt], for which the Solubility in water entry in [10] is “sparingly soluble in water”.
The same measure, in the same setting: the result for `Cc1ccc2c(c1)C(c1ccccc1)=NC(C(=O)O)C(=O)N2` (stereo not drawn) [4373 CB, 3-[7-methyl-5-phenyl-2-oxo-2,3-dihydro-1H-benzo[f]-1,4-diazepine]-carboxylic acid, potassium salt] reads “completely soluble in water”.
On to `CNC1=Nc2ccc(Cl)cc2C(c2ccccc2)=[N+]([O-])C1` [Chlordiazepoxide, reference compound], for which the ED50 was 17 mg/kg in data set [2]; 3 mg/kg in [3]; 100 mg/kg in [13]; 20 mg/kg in [5] (po); 13 mg/kg in data set [6]; > 100 mg/kg in data set [7]. Besides, the ED50 in data set [14] is 100 mg/kg; in [8] it was 5 mg/kg. The results for the 50% lethal dose (LD50) in data set [11] (IP) and in data set [11] (PO) were 80 mg/kg and 200 mg/kg, respectively.

For orientation: LD50 means the dose expected to kill half of the subjects tested.
